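Compound exposure: 48 hours, 5 concentrations, 96-well plates. Abbreviation: GI50, concentration required for 50% inhibition of growth.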 The source made the active and inactive calls. Cut-off read from the data, not from the text of the source: active = GI50 up to about 1.1 µM and inactive = higher.
Assays:
Experiment in all cases: inhibition of tumour cell growth, NCI panel, 48 h
[1] = test system: HCT-116
[2] = test system: HCT-15
[3] = test system: HL-60
[4] = test system: HT-29
[5] = test system: K562
[6] = test system: KM12
[7] = test system: MOLT-4
[8] = test system: Malme-3M
[9] = test system: NCI-H23
[10] = test system: NCI-H460
[11] = test system: OVCAR-8
[12] = test system: RPMI-8226
[13] = test system: RXF 393
[14] = test system: SF-295
[15] = test system: SK-OV-3
[16] = test system: UACC-62
[17] = test system: UO-31

| SMILES | GI50 [1] | GI50 [2] [µM] | GI50 [3] | GI50 [4] | GI50 [5] | GI50 [6] | GI50 [7] | GI50 [8] | GI50 [9] | GI50 [10] | GI50 [11] | GI50 [12] | GI50 [13] | GI50 [14] | GI50 [15] | GI50 [16] | GI50 [17] |
| --- | --- | --- | --- | --- | --- | --- | --- | --- | --- | --- | --- | --- | --- | --- | --- | --- | --- |
| S=P(N1CCCC1)(N1CC1)N1CC1 | > 100 µM (inactive) | > 100 | 56.2 µM (inactive) | > 100 µM (inactive) | > 100 µM (inactive) | > 100 µM (inactive) | 71.4 µM (inactive) | > 100 µM (inactive) | > 100 µM (inactive) | 32.4 µM (inactive) | > 100 µM (inactive) | > 100 µM (inactive) | > 100 µM (inactive) | > 100 µM (inactive) | > 100 µM (inactive) | > 100 µM (inactive) | > 100 µM (inactive) |
| CC(C)(C)/N=C1/CC(C)(C)c2ccccc2/C(=N\c2ccccc2)S1 | 33.4 µM (inactive) | 37.2 | 12.2 µM (inactive) | 35 µM (inactive) | 26.4 µM (inactive) | 26.8 µM (inactive) | 14.8 µM (inactive) | 27.9 µM (inactive) | 27.7 µM (inactive) | 30.1 µM (inactive) | 41.8 µM (inactive) | 11.2 µM (inactive) | 21.4 µM (inactive) | 32.4 µM (inactive) | 57 µM (inactive) | 27 µM (inactive) | 31.8 µM (inactive) |
| Cc1ccccc1C(=O)c1ccccc1O | > 100 µM (inactive) | > 100 | > 100 µM (inactive) | > 100 µM (inactive) | > 100 µM (inactive) | > 100 µM (inactive) | > 100 µM (inactive) | > 100 µM (inactive) | > 100 µM (inactive) | > 100 µM (inactive) | > 100 µM (inactive) |  | > 100 µM (inactive) | > 100 µM (inactive) | > 100 µM (inactive) | > 100 µM (inactive) | 24.6 µM (inactive) |
| Cc1ccc(C2=C(c3ccccc3)C(Br)(c3ccccc3)C(c3ccccc3)=C2c2ccc(C)cc2)cc1 | > 100 µM (inactive) | > 100 | > 100 µM (inactive) | > 100 µM (inactive) | > 100 µM (inactive) | > 100 µM (inactive) | > 100 µM (inactive) | > 100 µM (inactive) | > 100 µM (inactive) | > 100 µM (inactive) | > 100 µM (inactive) | > 100 µM (inactive) | > 100 µM (inactive) | > 100 µM (inactive) | > 100 µM (inactive) | > 100 µM (inactive) | > 100 µM (inactive) |
| N#CC(NNC(=O)c1ccccc1O)c1ccc(O)cc1 (stereo not given) | 3.33 µM (inactive) | 8.63 | 5.32 µM (inactive) | 28.1 µM (inactive) | 3.1 µM (inactive) | 4.94 µM (inactive) | 4.17 µM (inactive) | 29.6 µM (inactive) | 8.05 µM (inactive) | 3.79 µM (inactive) | 7.66 µM (inactive) | 10.2 µM (inactive) | 1.48 µM (inactive) | 4.38 µM (inactive) | 6.44 µM (inactive) | 1.95 µM (inactive) | 2.3 µM (inactive) |
| O=c1[nH]c(=O)n(C2CC(O)C(CO)O2)cc1COCC(F)(F)F (stereo not given) |  |  | > 100 µM (inactive) | > 100 µM (inactive) | > 100 µM (inactive) | > 100 µM (inactive) | > 100 µM (inactive) | > 100 µM (inactive) | > 100 µM (inactive) | > 100 µM (inactive) | > 100 µM (inactive) | > 100 µM (inactive) | > 100 µM (inactive) | > 100 µM (inactive) | > 100 µM (inactive) | > 100 µM (inactive) | > 100 µM (inactive) |
| C#CCOCn1cnc2c(N)ncnc21 | > 100 µM (inactive) |  |  | > 100 µM (inactive) | > 100 µM (inactive) | > 100 µM (inactive) | > 100 µM (inactive) | > 100 µM (inactive) | > 100 µM (inactive) | > 100 µM (inactive) | > 100 µM (inactive) | > 100 µM (inactive) |  | > 100 µM (inactive) | > 100 µM (inactive) | > 100 µM (inactive) | > 100 µM (inactive) |
| O=C1C(=O)N(c2ccc(Cl)c(Cl)c2)C(=O)C(=O)C1c1nc2ccccc2o1 | 34.1 µM (inactive) | 50.2 | 22.9 µM (inactive) | 41.6 µM (inactive) | 36.6 µM (inactive) | > 100 µM (inactive) | 31.7 µM (inactive) | 87.9 µM (inactive) | 68.7 µM (inactive) | > 100 µM (inactive) | > 100 µM (inactive) | 24.7 µM (inactive) |  | > 100 µM (inactive) | > 100 µM (inactive) | 74.8 µM (inactive) | > 100 µM (inactive) |
| Cc1nc2ccccc2nc1NS(=O)(=O)c1ccc(N)cc1 |  | > 100 | > 100 µM (inactive) | > 100 µM (inactive) | > 100 µM (inactive) | > 100 µM (inactive) | > 100 µM (inactive) | > 100 µM (inactive) | > 100 µM (inactive) |  | > 100 µM (inactive) | > 100 µM (inactive) | > 100 µM (inactive) | > 100 µM (inactive) |  | > 100 µM (inactive) | > 100 µM (inactive) |
| CO/S(=N/S(=O)(=O)c1ccccc1)c1ccccc1[N+](=O)[O-] (stereo not given) |  | > 100 |  | > 100 µM (inactive) | > 100 µM (inactive) | > 100 µM (inactive) | > 100 µM (inactive) | > 100 µM (inactive) | > 100 µM (inactive) | > 100 µM (inactive) | > 100 µM (inactive) | > 100 µM (inactive) |  | > 100 µM (inactive) | > 100 µM (inactive) | > 100 µM (inactive) | > 100 µM (inactive) |
| N#CCCC(C#N)(C#N)CCC#N | > 100 µM (inactive) | > 100 | > 100 µM (inactive) | > 100 µM (inactive) | > 100 µM (inactive) | > 100 µM (inactive) | > 100 µM (inactive) | > 100 µM (inactive) | > 100 µM (inactive) | > 100 µM (inactive) | > 100 µM (inactive) | > 100 µM (inactive) |  | > 100 µM (inactive) | > 100 µM (inactive) | > 100 µM (inactive) | > 100 µM (inactive) |
| Nc1nc(O)c([N+](=O)[O-])c(NCCOCP(=O)(O)O)n1 | > 100 µM (inactive) |  | > 100 µM (inactive) | > 100 µM (inactive) | > 100 µM (inactive) | > 100 µM (inactive) | > 100 µM (inactive) | > 100 µM (inactive) | > 100 µM (inactive) | > 100 µM (inactive) | > 100 µM (inactive) | > 100 µM (inactive) | > 100 µM (inactive) | > 100 µM (inactive) | > 100 µM (inactive) | > 100 µM (inactive) | > 100 µM (inactive) |
| CCC1(c2c(F)c(F)c(N)c(F)c2F)CCC(=O)NC1=O (stereo not given) | > 100 µM (inactive) | > 100 | > 100 µM (inactive) | > 100 µM (inactive) | > 100 µM (inactive) | > 100 µM (inactive) | > 100 µM (inactive) | > 100 µM (inactive) | > 100 µM (inactive) | > 100 µM (inactive) | > 100 µM (inactive) | > 100 µM (inactive) |  | > 100 µM (inactive) | > 100 µM (inactive) | > 100 µM (inactive) | > 100 µM (inactive) |
